From patent US6355639B1, “Reverse prenyl compounds as immunosuppressants” (Sloan-Kettering Institute for Cancer Research, priority 1997, dated 2002)
“And” between values parts separate entries of the source, which are not always exact repeats. Identical values can stand only once. Like-named read-outs stand apart in the source and are kept apart here. Marks after values point to notes of the source that are not given here. Blank lines part the entries; values can stand above or below the molecule they belong to.

Key:
[1] = tested on: peripheral blood lymphocytes stimulated by PHA; assay: PHA stimulation assay, [3H]TdR incorporation; format: cell-based, human; settings: Reverse Prenyl Compounds, read-out: IC50 PHA Assays
Protocol: (§1) Fresh peripheral blood lymphocytes isolated by Ficoll-Hypaque density centrifugation are stimulated by PHA or the OKT3 antibody (anti-CD3), which stimulates via interaction with CD3. Stimulation is measured by incorporation of radioactive thymidine [(^3H)TdR] into proliferating cells, with an unhibited control signal of 48,000-75,000 cpm. IC50 values are estimated from inhibitions of proliferation observed at various drug concentrations.

[2] = tested on: peripheral blood lymphocytes stimulated by OKT3 antibody (anti-CD3); assay: OKT3 stimulation assay, [3H]TdR incorporation; format: cell-based, human; settings: Reverse Prenyl Compounds, read-out: IC50 OKT3 Assays
Protocol: as §1

[3] = tested on: Human Peripheral Blood Lymphocytes; assay: Thymidine incorporation assay: activation of human peripheral blood lymphocytes by phytohemagglutinin; format: cell-based; settings: drug 30 min, then 10 μg/ml PHA 24 hrs, [3H]Thd incorporation
Protocol: Inhibitory Effects of Ardeemin Compounds on the Activation of Human Peripheral Blood Lymphocytes by Phytohemagglutinin
Thymidine Incorporation Assay:
PBL were exposed to various concentrations of drugs for 30 min and then added 10 μg/ml PHA for 24 hrs. [^3H]Thd (1 μCi/well) was then added and incubated for 1 hr. The reaction is stopped by adding 10% TCA for analysis of [^3H]Tdk incorporation into DNA.

B6D2F1 mice = assay: Cumulative toxicity in B6D2F1 mice
Protocol: FIG. 2 illustrates the cumulative toxicity in B6D2F1 mice treated with multidrug resistance reversal agents (mg/kg,i.p.,QD). Each group consists of five mice. […] Cumulated doses in the series shown in panels A, B and C were 712.5, 1700 and 3950 mg/kg×day, respectively.

[4] = tested on: heterotopic cardiac transplants; assay: Heterotopic mouse cardiac transplants (prospective example); format: in vivo, mice; settings: 40 mg/kg-1 mg/25 g per day, i.v., 7 or 14 days, Alzet pump
Protocol: 5-N-Acetylardeemin and 5-N-acetyl-8-desmethylardeemin are individually administered to mice which have received heterotopic cardiac transplants at a range of concentrations (40 mg/kg-1 mg/25 g per day), i.v., for seven days or fourteen days using an Alzet pump. Each compound is dissolved in DMSO at high concentration prior to administration. Control animals receive the same volume of carrier solvent (40 μL DMSO).

P388/0 Tumors = format: in vivo; set-up: SURVIVAL TIME of individual mice (No. 1-6): unit: days
Protocol: Survival times were determined for B6D2F1 mice inoculated with P388/0 cells, 10^6 cells/mouse, i.p. at Day 0. The mice were treated by adriamycin and 5-N-acetylardeemin, i.p., daily for four days. Survival times were recorded based on the time of death with the following scheme of decimal values: 8AM (0.0), 1PM (0.25), 5PM (0.5). An in vivo immunosuppressive effect of the ardeemin derivatives is found which persistently […] the lifespan of P388 tumor-bearing B6D2F1 mice in a dose-dependent manner.

[5] = tested on: inflammation induced by carrageene; assay: Inflammation induced by carrageene in mice pedis; format: in vivo
Protocol: FIG. 3 illustrates the delayed treatment of inflammation induced by carrageene with aspirin, N-acetylardeemin and hydrocortisone. (●) Control; (▪) Aspirin (500 mg/kg, p.o.); (Δ) N-acetylardeemin (100 mg/kg, i.p.); (x) Hydrocortisone cream.
FIG. 4 illustrates the treatment of inflammation induced by carrageene with aspirin, N-acetylardeemin and hydrocortisone. (●) Control; (▪) Aspirin (500 mg/kg, p.o.); (Δ) N-acetylardeemin (100 mg/kg, i.p.); (x) Hydrocortisone cream.

[6] = tested on: inflammation induced by carrageene; assay: Inflammation induced by carrageene in mice pedis; format: in vivo; remark: listed apart in the source
[7] = tested on: peripheral blood lymphocytes stimulated by PHA; settings: Classical immunosuppressant (historical data); read-out: IC50 PHA Assays; cited from earlier work
[8] = tested on: peripheral blood lymphocytes stimulated by OKT3 antibody (anti-CD3); settings: Classical immunosuppressant (historical data); read-out: IC50 OKT3 Assays; cited from earlier work
[9] = 5NAcArd 3.33 mg/kg i.p. daily Day 1-4
[10] = 5NAcArd 10 mg/kg i.p. daily Day 1-4
[11] = 5NAcArd 30 mg/kg i.p. daily Day 1-4
[12] = Adr 0.333 mg/kg i.p. daily Day 1-4
[13] = Adr 1.0 mg/kg i.p. daily Day 1-4
[14] = Adr 3.0 mg/kg i.p. daily Day 1-4

IC50 [1]: 9.97 ± 1.49 µM
IC50 [2]: 4.56 µM
Molecule: 5-N-Ac-F3-Ardeemin

IC50 [3]: 2260 nM
IC50 ([1]; listed as 8-Desmethylardeemin): 2.26 ± 0.06 µM
IC50 ([2]; listed as 8-Desmethylardeemin): 2.23 ± 0.16 µM
IC50 ([2]; listed as 8-desmethylardeemin): 1.2 to 2.3 µM
Molecule: 8-demethylardeemin

Molecule: C=CC(C)(C)[C@@]12C[C@H]3c4nc5ccccc5c(=O)n4CC(=O)N3[C@@H]1N(C(C)=O)c1ccccc12 [5-N-acetyl-8-demethylardeemin, 5-N-acetyl-8-desmethylardeemin]
IC50 [3]: 980 nM
IC50 ([1]; listed as 5-N-Ac-8-desmethylardeemin): 1.2 ± 0.02 µM
IC50 [2]: 1.13 ± 0.13 µM
toxicity to mice (B6D2F1 mice; FIG. 2, i.p., QD): very nontoxic
toxicity to mice (B6D2F1 mice; sequential 100 mg/kg i.p. QDx6, 150 mg/kg QDx8, 200 mg/kg QDx3, 300 mg/kg QDx3): non-toxic
average body weight decreases (B6D2F1 mice; up to 250 mg/kg, Qdx3): less than 0.5 g
resistance of organ transplant to graft rejection vs control mice [4]: more resistant to graft rejection

Molecule: C=CC(C)(C)[C@@]12C[C@H]3c4nc5ccccc5c(=O)n4[C@H](C)C(=O)N3[C@@H]1N(C(C)=O)c1ccccc12 [5-N-acetylardeemin]
IC50 [3]: 1910 nM
IC50 [1]: 7.96 µM
IC50 [2]: 31.9 µM
% ILS (% increase in lifespan) (P388/0 Tumors; [9]): −2%
AWC D 4 (P388/0 Tumors; [9]): +0.9 Gm
AWC D 6 (P388/0 Tumors; [9]): +3.3 Gm
MST (mean survival time) (P388/0 Tumors; [9]): 7.25
SURVIVAL TIME of individual mice (No. 1-6) (P388/0 Tumors; [9]): 8.0 (2×) and 6.0 and 7.0
% ILS (% increase in lifespan) (P388/0 Tumors; [10]): −10%
AWC D 4 (P388/0 Tumors; [10]): +1.7 Gm
AWC D 6 (P388/0 Tumors; [10]): +4.8 Gm
MST (mean survival time) (P388/0 Tumors; [10]): 6.67
SURVIVAL TIME of individual mice (No. 1-6) (P388/0 Tumors; [10]): 7.5 and 6.0 and 6.5
% ILS (% increase in lifespan) (P388/0 Tumors; [11]): −16%
AWC D 4 (P388/0 Tumors; [11]): +1.6 Gm
AWC D 6 (P388/0 Tumors; [11]): +3.8 Gm
MST (mean survival time) (P388/0 Tumors; [11]): 6.25
SURVIVAL TIME of individual mice (No. 1-6) (P388/0 Tumors; [11]): 6.0 and 6.5
Average Pedis Area, Hours: 0 ([5]; 100 mg/kg i.p.): 7.1 mm^2
Average Pedis Area, Hours: 60 ([5]; 100 mg/kg i.p.): 10.2*** mm^2
Toxicity Death ([5]; 100 mg/kg i.p.): 0/5
toxicity to mice (B6D2F1 mice; FIG. 2, i.p., QD): relatively nontoxic
resistance of organ transplant to graft rejection vs control mice [4]: more resistant to graft rejection
Average Pedis Area, Hours: 0 ([6]; 50 mg/kg i.p.): 6.8 mm^2
Average Pedis Area, Hours: 12 ([6]; 50 mg/kg i.p.): 12.4 mm^2
Average Pedis Area, Hours: 24 ([6]; 50 mg/kg i.p.): 12.7 mm^2
Average Pedis Area, Hours: 48 ([6]; 50 mg/kg i.p.): 11.3* mm^2
Average Pedis Area, Hours: 60 ([6]; 50 mg/kg i.p.): 15.6 mm^2
Toxicity Death ([6]; 50 mg/kg i.p.): 0/5
Average Pedis Area, Hours: 12 ([6]; 100 mg/kg i.p.): 9.7*** mm^2
Average Pedis Area, Hours: 24 ([6]; 100 mg/kg i.p.): 9.0*** mm^2
Average Pedis Area, Hours: 48 ([6]; 100 mg/kg i.p.): 8.6*** mm^2

Molecule: S=c1nc[nH]c2nc[nH]c12 [6-MP]
IC50 [7]: 44 ± 17 nM
IC50 [8]: 136 ± 19 nM

Molecule: COc1cccc2c1C(=O)c1c(O)c3c(c(O)c1C2=O)C[C@@](O)(C(=O)CO)C[C@@H]3O[C@H]1C[C@H](N)[C@H](O)[C@H](C)O1 [Adr, adriamycin, reference compound]
% ILS (% increase in lifespan) (P388/0 Tumors; [12]): 85%
MST (mean survival time) (P388/0 Tumors; [12]): 13.75
% ILS (% increase in lifespan) (P388/0 Tumors; [13]): 129%
MST (mean survival time) (P388/0 Tumors; [13]): 17.0
% ILS (% increase in lifespan) (P388/0 Tumors; [14]): 145%
MST (mean survival time) (P388/0 Tumors; [14]): 18.19

Molecule: CC(=O)Oc1ccccc1C(=O)O [Aspirin]
Average Pedis Area, Hours: 0 ([5]; 500 mg/kg p.o.): 6.8 mm^2
Average Pedis Area, Hours: 0 ([6]; 250 mg/kg p.o.): 6.9 mm^2
Average Pedis Area, Hours: 12 ([6]; 250 mg/kg p.o.): 12.5 mm^2
Average Pedis Area, Hours: 24 ([6]; 250 mg/kg p.o.): 12.3 mm^2
Average Pedis Area, Hours: 48 ([6]; 250 mg/kg p.o.): 13.2 mm^2
Average Pedis Area, Hours: 60 ([6]; 250 mg/kg p.o.): 15.4** mm^2
Toxicity Death ([6]; 250 mg/kg p.o.): 0/5
Average Pedis Area, Hours: 12 ([6]; 500 mg/kg p.o.): 9.9** mm^2
Average Pedis Area, Hours: 24 ([6]; 500 mg/kg p.o.): 10.6** mm^2
Average Pedis Area, Hours: 48 ([6]; 500 mg/kg p.o.): 9.0*** mm^2
Average Pedis Area, Hours: 60 ([6]; 500 mg/kg p.o.): 10.0*** mm^2
Toxicity Death ([6]; 500 mg/kg p.o.): 0/5
Average Pedis Area, Hours: 0 ([6]; 1000 mg/kg p.o.): 6.5 mm^2
Average Pedis Area, Hours: 12 ([6]; 1000 mg/kg p.o.): 8.8*** mm^2
Toxicity Death ([6]; 1000 mg/kg p.o.): 5/6

IC50 [3]: 11200 nM
Molecule: Cc1c(-c2ccc(-c3ccccc3F)cc2)nc2ccc(F)cc2c1C(=O)O [Brequinard]
IC50 [7]: 11200 ± 4000 nM
IC50 [8]: 56600 ± 22700 nM

IC50 ([3]; Homo sapiens, Lymphocyte): 28200 nM
Molecule: C[C@@H]1C[C@H]2[C@@H]3CCC4=CC(=O)C=C[C@]4(C)[C@@]3(F)[C@@H](O)C[C@]2(C)[C@@]1(O)C(=O)CO [Dexamethasone, reference compound]

IC50 [1]: 5.48 ± 1.24 µM
IC50 [2]: 12 ± 0.51 µM
Molecule: C=CC(C)(C)[C@@]12Nc3ccccc3[C@]1(O)C[C@H]1C(=O)N3[C@@H](C[C@]4(O)c5ccccc5N[C@]34C(C)(C)C=C)C(=O)N12 [Gypsetin]

Molecule: C[C@]12CCC(=O)C=C1CC[C@@H]1[C@@H]2[C@@H](O)C[C@@]2(C)[C@H]1CC[C@]2(O)C(=O)CO [Hydrocortisone]
Average Pedis Area, Hours: 12 ([5]; 1% Cream, Skin): 9.0*** mm^2
Toxicity Death ([5]; 1% Cream, Skin): 0/5
Average Pedis Area, Hours: 0 ([6]; 1% Cream, Skin): 6.9 mm^2
Average Pedis Area, Hours: 24 ([6]; 1% Cream, Skin): 8.9*** mm^2
Average Pedis Area, Hours: 48 ([6]; 1% Cream, Skin): 7.8*** mm^2
Average Pedis Area, Hours: 60 ([6]; 1% Cream, Skin): 7.9*** mm^2

Molecule: COc1c(C)c2c(c(O)c1C/C=C(\C)CCC(=O)O)C(=O)OC2 [MPA]
IC50 [7]: 95 ± 27 nM
IC50 [8]: 416 ± 210 nM

IC50 ([3]; Homo sapiens, Lymphocyte): 610 nM
Molecule: CO[C@H]1C[C@@H]2CC[C@@H](C)[C@@](O)(O2)C(=O)C(=O)N2CCCC[C@H]2C(=O)O[C@H]([C@H](C)C[C@@H]2CC[C@@H](O)[C@H](OC)C2)CC(=O)[C@H](C)/C=C(\C)[C@@H](O)[C@@H](OC)C(=O)[C@H](C)C[C@H](C)/C=C/C=C/C=C/1C [Rapamycine, reference compound]
